| logP | Structure (SMILES) |
| --- | --- |
| -0.7 | CNC(=O)NC(C)=O |
| 3.75 | Cc1cccc([N+](=O)[O-])c1C(=O)NC(=O)Nc1ccc(Cl)cc1 |
| 3.2 | O=C(NC(=O)c1c(F)cccc1F)Nc1ccc(F)cc1 |
| -1.4 | CNC(N)=O |
| 1.92 | CCNC(=O)NC(=O)c1ccccc1 |
| 1.27 | CNC(=O)NC(=O)c1ccccc1 |
| -0.01 | CCNC(=O)NC(C)=O |
| 4.35 | COc1ccccc1C(=O)NC(=O)Nc1ccc(Cl)cc1 |
| 1.6 | CC(=O)NC(=O)Nc1ccccc1 |
| 3.39 | O=C(NC(=O)c1ccccc1)Nc1ccccc1 |

| Structure (SMILES) | logP |
| --- | --- |
| O=C(NC(=O)c1c(F)cccc1F)Nc1ccc(Cl)cc1 | 3.88 |
